The subject of series [1] is P388 (Murine Leukemia) cells. Briefly: anti-tumor assay, P388 cell growth, MTT. It is filed as cell-based. To be noted: Mus musculus, 72 hours incubation, read-out: cytotoxic to P388 murine leukemia cells (IC50). The method, then:
The bioactivity of peloruside A as an anti-tumor agent was determined by an anti-tumor assay. For the anti-tumor assay a 2-fold dilution series of the same of interest is incubated for 72 hours with P388 (Murine Leukemia) cells. The concentration of sample required to reduce the P388 cell growth by 50% (comparative to control cells) is determined using the absorbance values obtained with the yellow dye MTT tetrazollum is reduced by healthy cells to the purple colour MTT formazan. The result is expressed as an IC50 in ng/mL.

For series [2], the system named is SH-SY5Y (human neuroblastoma). Kind of series: MTT cytotoxicity assay, 96 hours exposure. Format: cell-based. The method, then:
(§1) The cytotoxicity of Peloruside A was tested in five cell lines:
SH-SY5Y (human neuroblastoma)
(§2) 32D (murine myeloid) generally in accordance with the MTT assay of Burres et al., J. Cancer Research (1989), 49, 2935-2940.
(§3) Briefly, cell lines were maintained in Dulbecco's modified Eagle's medium: F12 medium (50:50) (Gibco) supplemented with 10% fetal calf serum (Gibco), […] Penicillin G, and […] streptomycin sulfate. After 96 hours exposure to the toxin, cell viability was determined by the MTT calorimetric assay. […] Data were analysed with the SYSTAT statistical program using a non-linear model fit, and IC50 values were calculated using a Logit-Log plot.
In general terms: Formazan colour is commonly taken as a measure of viable cells.

For a further series, the system named is b-tubulin in HL-60 cells. Kind of series: in situ tubulin polymerization, immunoblot of soluble and particulate fractions. It is filed as cell-based, human. To be noted: 5 h. From the text: A simple in situ cellular assay as described by Giannakakou P., Gussio R., Nogales E., Downing K. H., Zaharevitz D., Bollbuck B., Poy G., Sackett D., Nicolaou K. C., Fojo T., Proc. Nat. Acad. Sci. (USA) (2000), 97, 2904-2909 was used in which the shift in tubulin from depolymerized to polymerized forms was followed by electrophoresis and Western blotting of centrifuged particulate and cytosolic fractions. To summarize, 2×10^6 untreated and drug-exposed HL-60 cells were lysed by exposure for 5 min at 37° C. to […] of hypotonic buffer (1 mM MgCl2, 2 mM EGTA, 1% Nonidet P-40, 2 mM phenylmethylsulfonyl fluoride, 1 mg/mL aprotinin, 2 mg/mL pepstatin, and 20 mM Tris-HCl, pH 6.8) and the particulate fraction separated from the soluble cytosolic fraction by high speed centrifugation for 10 min in a bench-top centrifuge. Samples labeled ‘0 min’ received drug immediately before collection of the cells. The processing of the cells to the critical centrifugation step required approximately 30 min. The pellet was dissolved in […] of sample buffer (8 M urea, 4% CHAPS, 3 M thiourea, and 40 mM DTT). Twenty mL of loading buffer was added to each […] sample, the samples were vortexed and then boiled for 5 min. Twenty mL of each sample was loaded on an SDS/10% polyacrylamide gel and resolved by electrophoresis. b-Tubulin bands were identified by Western blotting using b-tubulin primary antibody ( 1/1000 dilution) following standard immunoblotting procedures with detection by enhanced chemiluminescence (Lumi-Light, Roche).
Scale bar (lower right)=500 nm.
Background: Immunoblotting shows a protein as a band on a membrane.

A further series deals with P388 (murine leukemia). Briefly: MTT cytotoxicity assay, 96 hours exposure. Particulars: P388, 96 hours exposure. Format: cell-based. The method, then:
as §1, §2, §3

The test system of another series is LLC-PK1 (pig kidney). Briefly: MTT cytotoxicity assay, 96 hours exposure. Format: cell-based. To be noted: LLC-PK1, 96 hours exposure. The method, then:
as §1, §2, §3

Series [3] can be described thus: lipophilicity by thin layer chromatography. It is filed as physicochemical.
The next series relates to H441 cells. Briefly: cell cycle by flow cytometry (PI) and mitotic index. It is filed as cell-based, human. Further details: metaphase-arrested cells (mitotic index): dose or concentration left out as unconfirmed. To be noted: H441, 24 h. The method, then:
Using standard methodology, the DNA of cells was stained with propidium iodide (PI), and the proportion of cells in different phases of the cell cycle was monitored by flow cytometry. Briefly, H441 cells were treated with […] for 24 h. Adherent cells were collected by trypsinization and added to those in suspension. The cells were then fixed with cold 70% ethanol overnight and stained with PI solution consisting of 45 mg/mL PI, 10 mg/mL RNaseA, and 0.1% glucose. After a 2 h incubation at RT, samples were analysed in a FACSort flow cytometer (Becton Dickinson).
Cells were treated with […] Peloruside A or paclitaxel, stained with PI, and counted by flow cytometry. For the mitotic index, cells were treated for 24 h with different concentrations of Peloruside A or paclitaxel, and the number of cells in mitosis divided by the total number of cells (n=at least 400 cells counted in each of 3 preparations).
For orientation: In flow cytometry, cells or beads pass a laser one at a time.

The next series relates to HL-60 cells. Kind of series: MTT cell proliferation assay. Format: cell-based, human. To be noted: Homo sapiens, HL-60. The method, then:
Tumorigenic and non-tumorigenic cell lines were cultured as previously described in Hood K. A., West L. M., Northcote P. T., Berridge M. V., Miller J. H., Apoptosis (2001), 6, 207-219. These cell lines included HL-60 and KS62, two tumorigenic human myeloid leukemic cell lines, 32D clone 3 (32D), a non-tumorigenic murine myeloid cell line, 32D-ras, the ras-transformed derivative of 32D, H441, a human lung adenocarcinoma cell line, SH-SY5Y, a human neuroblastoma cell line, and LLC-PK1, a non-tumorigenic pig kidney cell line. IC50 values for Peloruside A in the different cell lines were determined using the tetrazolium-based MTT cell proliferation assay as previously described (Hood K. A et al.).

In the next series the test system is HeLa cells. Briefly: anti-metabolic activity, WST-1 reduction. Format: cell-based. Also on record: stimulation of WST-1 reduction: dose or concentration left out as unconfirmed. The method, then: The effect of Peloruside A and paclitaxel on superoxide production was determined using human peripheral blood neutrophils activated with […] N-formyl-met-leu-phe (fMLP) as described previously (Tan A. S., Berridge M. V., J. Immunol. Meth. (2000), 238, 59-68). In this microplate assay, the cell-impermeable tetrazolium salt, WST-1, is reduced to its soluble formazan and dye reduction measured at 450 nm as an initial rate over 10-20 min. Samples were equilibrated with cells for 3 min at 37° C. and the reaction initiated by adding fMLP. Measurement of anti-metabolic activity followed a similar microplate protocol except that HeLa cells were used instead of neutrophils, cells were not activated with fMLP, and the intermediate electron acceptor, 1-methoxy phenazine methosulfate at 25 mM, was included in the WST-1 reagent to facilitate detection of low potential electrons from the plasma membrane.

Series [4] concerns H441 (human lung adenocarcinoma). Briefly: MTT cytotoxicity assay, 96 hours exposure. Format: cell-based. The method, then: as §1
H441 (human lung adenocarcinoma)
as §2, §3

Each structure is given as a SMILES string. In brackets after ≈: the same amount, converted by molar mass.

Consider 1 compound from patent US6790862B2 (priority 1999, dated 2004).

`CCC(/C=C(/C)C1C[C@H](OC)C[C@@H](O)C(C)(C)[C@]2(O)OC(CC(OC)C2O)C[C@H](OC)[C@@H](O)C(=O)O1)CO` (some centres unmarked) [Peloruside A]: the IC50 (as a rule, the concentration needed to halve the response being measured) in series [1] is around 0.01 µg/mL (≈ 0.0182 µM); in the series with HL-60 cells it was 7 ± 4 nM. Besides, in [2], the retraction of dendrites result is on record as “no retraction of dendrites was observed”. The LD50 turned out to be 14.9 nM in series [2] (96 hours exposure); 18 nM with P388 (murine leukemia); 3.7 nM with LLC-PK1 (pig kidney); 6.2 nM in series [4] (H441, 96 hours exposure). Besides, in the series on b-tubulin in HL-60 cells (HL-60, 100 nM), the “b-tubulin remaining in the soluble fraction” value is “No detectable b-tubulin remained in the soluble fraction”. Moreover, the “effect on proportion of soluble to polymerized tubulin” value in the series with b-tubulin in HL-60 cells (HL-60, different concentrations) is on record as “dose-dependent shifts of soluble tubulin to the particulate fraction”. Further, the lipophilicity result in [3] is recorded as “less lipophilic than paclitaxel”. For the same compound, the cell cycle arrest entry in the series on H441 cells was “partial cell cycle arrest at G2/M”. The “metaphase-arrested cells (mitotic index)” value in the series with H441 cells is 34±2%. For the same compound, the “stimulation of WST-1 reduction” value in the series on HeLa cells was 20%. In [4] (H441, comparators at their respective LD50s), the “nuclei break up into small vessicles (nuclear blebbing)” value was “nuclei of the cells were observed to break up into small vessicles”.
